According to ChEMBL document CHEMBL4346666, “Synthesis, mitochondrial localization of fluorescent derivatives of cinnamamide as anticancer agents” (Eur J Med Chem, 2019):
Activity calls are given as the source filed them. No cut-off for these calls is given here.

How the values were obtained:
HL-60 [1] = experiment: Induction of cell cycle arrest in human HL60 cells assessed as accumulation at S-phase at 20 uM after 48 hrs by propidium iodide staining-based flow cytometry (reference value: 14.88%); assay type: functional
HL-60 [2] = experiment: Induction of cell cycle arrest in human HL60 cells assessed as accumulation at G0/G1 phase at 10 uM after 48 hrs by propidium iodide staining based flow cytometry (reference value: 83.52%); assay type: functional
HL-60 [3] = experiment: Cytotoxicity against human HL60 cells assessed as cell viability at 20 uM measured after 48 hrs by MTT assay relative to control; assay type: functional; conditions: HL-60, 48 h, read-out: Activity
[4] = Binding affinity to cysteamine residue by ESI-MS analysis
[5] = Binding affinity to cysteamine residue assessed as hypochromic effect at 20 uM incubated for up to 1 hr by UV-Vis absorption spectrophotometric method
[6] = Drug uptake in human HL60 cells at 20 uM measured after 3 hrs by spectrofluorimetric analysis relative to PBMC cells; assay type: ADME, cell-based; conditions: hl-60, 3 h
HL-60 [7] = experiment: Induction of apoptosis in human HL60 cells assessed as late apoptotic cells or necrotic cells at 20 uM after 48 hrs by Annexin-V-FITC/propidium iodide staining based flow cytometry (reference value: 0.39%); assay type: functional
HL-60 [8] = experiment: Cell cycle arrest in human HL60 cells assessed as decrease in accumulation at G2/M phase after 48 hrs by propidium iodide staining based flow cytometry; assay type: functional
[9] = Drug uptake in human HL60 cells by flow cytometry; assay type: ADME, cell-based; conditions: hl-60
HL-60 [10] = experiment: Induction of apoptosis in human HL60 cells assessed as early apoptotic cells at 20 uM after 48 hrs by Annexin-V-FITC/propidium iodide staining based flow cytometry (reference value: 0.71%); assay type: functional
[11] = Drug uptake in human HL60 cells at 20 uM measured after 1.5 hrs by spectrofluorimetric analysis relative to PBMC cells; assay type: ADME, cell-based; conditions: hl-60, 1.5 h
HL-60 [12] = experiment: Induction of cell cycle arrest in human HL60 cells assessed as accumulation at sub G0/G1 phase at 10 uM after 48 hrs by propidium iodide staining based flow cytometry (reference value: 0%); assay type: functional
HL-60 [13] = experiment: Induction of apoptosis in human HL60 cells assessed as early apoptotic cells at 10 uM after 48 hrs by Annexin-V-FITC/propidium iodide staining based flow cytometry (reference value: 0.71%); assay type: functional
HL-60 [14] = experiment: Induction of ROS generation in human HL60 cells after 6 hrs by DCFH-DA probe based flow cytometry analysis; assay type: functional, cell-based
HL-60 [15] = experiment: Cytotoxicity against human HL60 cells assessed as reduction in cell viability measured after 48 hrs by MTT assay; assay type: functional, cell-based; conditions: HL-60, 48 h
HL-60 [16] = experiment: Cell cycle arrest in human HL60 cells assessed as decrease in accumulation at S phase after 48 hrs by propidium iodide staining based flow cytometry; assay type: functional
HeLa = experiment: Cytotoxicity against human HeLa cells assessed as cell viability at 20 uM measured after 48 hrs by MTT assay relative to control; assay type: functional; conditions: read-out: Activity
HL-60 [17] = experiment: Induction of cell cycle arrest in human HL60 cells assessed as accumulation at G2/M phase at 20 uM after 48 hrs by propidium iodide staining based flow cytometry (reference value: 1.60%); assay type: functional
MCF7 = experiment: Cytotoxicity against human MCF7 cells assessed as cell viability at 20 uM measured after 48 hrs by MTT assay relative to control; assay type: functional; conditions: MCF7, 48 h, read-out: Activity
HL-60 [18] = experiment: Induction of apoptosis in human HL60 cells assessed as early apoptotic cells at 15 uM after 48 hrs by Annexin-V-FITC/propidium iodide staining based flow cytometry (reference value: 0.71%); assay type: functional
HL-60 [19] = experiment: Induction of apoptosis in human HL60 cells assessed as late apoptotic cells or necrotic cells at 15 uM after 48 hrs by Annexin-V-FITC/propidium iodide staining based flow cytometry (reference value: 0.39%); assay type: functional
HL-60 [20] = experiment: Induction of cell cycle arrest in human HL60 cells assessed as accumulation at sub G0/G1 phase at 20 uM after 48 hrs by propidium iodide staining based flow cytometry (reference value: 0%); assay type: functional
HL-60 [21] = experiment: Induction of cell cycle arrest in human HL60 cells assessed as accumulation at G0/G1 phase at 15 uM after 48 hrs by propidium iodide staining based flow cytometry (reference value: 83.52%); assay type: functional
HL-60 [22] = experiment: Induction of apoptosis in human HL60 cells assessed as late apoptotic cells or necrotic cells at 10 uM after 48 hrs by Annexin-V-FITC/propidium iodide staining based flow cytometry (reference value: 0.39%); assay type: functional
HL-60 [23] = experiment: Induction of cell cycle arrest in human HL60 cells assessed as accumulation at S-phase at 10 uM after 48 hrs by propidium iodide staining based flow cytometry (reference value: 14.88%); assay type: functional
HL-60 [24] = experiment: Induction of apoptosis in human HL60 cells assessed as increase in late apoptotic or necrotic cells after 48 hrs by Annexin-V-FITC/propidium iodide staining based flow cytometry relative to control; assay type: functional, cell-based
HL-60 [25] = experiment: Induction of cell cycle arrest in human HL60 cells assessed as accumulation at sub G0/G1 phase at 15 uM after 48 hrs by propidium iodide staining based flow cytometry (reference value: 0%)l; assay type: functional
[26] = Binding affinity to cysteamine residue at 1:1 to 5:1 stoichiometric ratio of cysteamine to compound incubated for up to 1 hr by UV-Vis absorption spectrophotometric method
HL-60 [27] = experiment: Induction of mitochondrial dysfunction in human HL60 cells assessed as decrease in mitochondrial membrane potential at 10 uM measured after 48 hrs by TMRE probe-based flow cytometry relative to control; assay type: functional
[28] = Drug localization in mitochondria of human HepG2 cells at 1 uM measured after 30 mins by […] dye-based confocal microscopy; assay type: ADME; conditions: hepg2, 0.5 h
HL-60 [29] = experiment: Induction of cell cycle arrest in human HL60 cells assessed as accumulation at S phase at 15 uM after 48 hrs by propidium iodide staining based flow cytometry (reference value: 14.88%); assay type: functional
[30] = Drug uptake in human HL60 cells at 20 uM measured after 0.5 hrs by spectrofluorimetric analysis relative to PBMC cells; assay type: ADME, cell-based; conditions: hl-60, 0.5 h
HL-60 [31] = experiment: Induction of mitochondrial dysfunction in human HL60 cells assessed as decrease in mitochondrial membrane potential at 20 uM measured after 48 hrs by TMRE probe-based flow cytometry relative to control; assay type: functional
HepG2 = experiment: Cytotoxicity against human HepG2 cells assessed as cell viability at 20 uM measured after 48 hrs by MTT assay relative to control; assay type: functional; conditions: HepG2, 48 h, read-out: Activity
PBMC = experiment: Cytotoxicity against human PBMC assessed as reduction in cell viability measured after 48 hrs by MTT assay; assay type: cell-based
HL-60 [32] = experiment: Induction of cell cycle arrest in human HL60 cells assessed as accumulation at G2/M phase at 15 uM after 48 hrs by propidium iodide staining based flow cytometry (reference value: 1.60%); assay type: functional
[33] = Drug localization in mitochondria of human HL60 cells at 1 uM measured after 30 mins by […] dye-based confocal microscopy; assay type: ADME; conditions: hl-60, 0.5 h
HL-60 [34] = experiment: Induction of mitochondrial dysfunction in human HL60 cells assessed as decrease in mitochondrial membrane potential at 15 uM measured after 48 hrs by TMRE probe-based flow cytometry relative to control; assay type: functional
HL-60 [35] = experiment: Induction of cell cycle arrest in human HL60 cells assessed as accumulation at G0/G1 phase at 20 uM after 48 hrs by propidium iodide staining based flow cytometry (reference value: 83.52%); assay type: functional
HL-60 [36] = experiment: Induction of cell cycle arrest in human HL60 cells assessed as accumulation at G2/M phase at 10 uM after 48 hrs by propidium iodide staining based flow cytometry (reference value: 1.60%); assay type: functional
HL-60 [37] = experiment: Cytotoxicity against human HL60 cells assessed as reduction in cell viability measured after 48 hrs in presence of ROS scavenger N-acetyl-L-cysteine and VE by MTT assay; assay type: functional, cell-based

SMILES: CCN(CC)c1ccc2cc(C(=O)NCCNC(=O)/C(=C/c3cc(OC)c(OC)c(OC)c3)c3ccc(OC)c(OC)c3)c(=O)oc2c1
- Activity (HL-60 [1]): 55.59%
- Activity (HL-60 [2]): 65.71%
- viability at 20 µM (HL-60 [3]): 25.8%
- Activity [4]: Active
- Activity [5]: Active
- fold change (FC) [6]: 8.9
- Activity (HL-60 [7]): 70.2%
- Activity (HL-60 [8]): Dose-dependent effect
- Drug uptake [9]: Tde and Dose-dependent effect
- Activity (HL-60 [10]): 3.75%
- fold change (FC) [11]: 4.5
- Activity (HL-60 [12]): 12.84%
- Activity (HL-60 [13]): 2.15%
- Activity (HL-60 [14]): Dose-dependent effect
- IC50 (HL-60 [15]): 9.1 µM
- Activity (HL-60 [16]): Dose-dependent effect
- viability at 20 µM (HeLa): 53.8%
- Activity (HL-60 [17]): 41.72%
- viability at 20 µM (MCF7): 66.5%
- Activity (HL-60 [18]): 6.06%
- Activity (HL-60 [19]): 38%
- Activity (HL-60 [20]): 21.44%
- Activity (HL-60 [21]): 24.15%
- Activity (HL-60 [22]): 16.3%
- Activity (HL-60 [23]): 19.94%
- Activity (HL-60 [24]): Dose-dependent effect
- Activity (HL-60 [25]): 24.1%
- Activity [26]: Active
- fold change (FC) (HL-60 [27]): 0.76
- Drug uptake [28]: Active
- Activity (HL-60 [29]): 35.43%
- fold change (FC) [30]: 4.2
- fold change (FC) (HL-60 [31]): 0.29
- viability at 20 µM (HepG2): 56.4%
- IC50 (PBMC): > 50 µM
- Activity (HL-60 [32]): 40.42%
- Drug uptake [33]: Active
- fold change (FC) (HL-60 [34]): 0.46
- Activity (HL-60 [35]): 2.69%
- Activity (HL-60 [36]): 14.35%
- Activity (HL-60 [37]): inactive
